Consider twelve compounds from PubChem BioAssay (NCI).

Several values for one entry are separate records, joined by “and”; a condition that tells them apart may be missing. Equal entries are not always repeated.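 Cells were grown in 96-well plates and exposed to each compound for 48 hours at five concentrations; endpoints were interpolated linearly between bracketing concentrations, or set to the highest concentration if not reached. Abbreviation: GI50, concentration required for 50% inhibition of growth. The concentration for full growth arrest is given as TGI.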

Among the test systems are MCF7 breast; NCI-H226 lung; SNB-75 CNS; HS 578T breast; SK-MEL-2 melanoma; DU-145 prostate; MOLT-4 leukemia; OVCAR-5 ovarian; NCI-H460 lung; EKVX NSCLC.
Common to all, as to assay: inhibition of tumour cell growth, NCI panel, 48 h

Take `Nc1nc(N)c2nc(CNc3ccc(C(=O)NC(CCC(=O)O)C(=O)O)cc3)cnc2n1` (stereo unspecified): the GI50 with MCF7 breast was 0.0101 µM and < 0.01 µM; with HS 578T breast it was greater than 100 µM; in the assay with SK-MEL-2 melanoma it was greater than 100 µM; in the assay with DU-145 prostate it was less than 0.01 µM; in the assay with MOLT-4 leukemia, 0.0375 µM and < 0.0131 µM; in the assay with OVCAR-5 ovarian, 0.0373 µM and 0.0307 µM. The GI50 with NCI-H460 lung was less than 0.01 µM; with EKVX NSCLC it was 4.69 µM. Further, the TGI in the assay on MCF7 breast, in the assay on NCI-H226 lung, in the assay with SNB-75 CNS, with HS 578T breast, with SK-MEL-2 melanoma and in the assay with DU-145 prostate was greater than 100 µM each time. Moreover, the TGI in the assay with MOLT-4 leukemia, in the assay on OVCAR-5 ovarian, in the assay on NCI-H460 lung and with EKVX NSCLC was greater than 100 µM in each case.
Consider `CCCN1CCCC(c2ccc(Nc3nc(Nc4cc(F)ccc4C(N)=O)c4cc[nH]c4n3)c(OC)c2)C1` (stereo unspecified), for which the GI50 in the assay with MCF7 breast is 0.0137 µM; in the assay with NCI-H226 lung, 3.04 µM; in the assay with SNB-75 CNS, 3.14 µM; in the assay with HS 578T breast, 3.41 µM; with SK-MEL-2 melanoma, 1.42 µM; in the assay with DU-145 prostate, 0.802 µM. The GI50 in the assay with MOLT-4 leukemia was 3.8 µM; in the assay with OVCAR-5 ovarian, 0.556 µM; with NCI-H460 lung, 0.116 µM; in the assay with EKVX NSCLC, 0.862 µM. In addition, the TGI with MCF7 breast was 3.58 µM; in the assay on NCI-H226 lung, 6.68 µM; in the assay on SNB-75 CNS, 6.43 µM; in the assay with HS 578T breast, 12.3 µM; in the assay with SK-MEL-2 melanoma it was 5.26 µM; in the assay on DU-145 prostate it was 4.74 µM. The TGI was 11.1 µM with MOLT-4 leukemia, 5.36 µM in the assay on OVCAR-5 ovarian, 2.99 µM with NCI-H460 lung and 5.19 µM in the assay with EKVX NSCLC.
Turning to `COc1cc(-c2nn(-c3cccc(NC(=O)NCCNC(=O)c4ccccc4)c3)cc2-c2ccncc2)ccc1Cl`, the GI50 in the assay on MCF7 breast is 2.22 µM; in the assay with NCI-H226 lung it was 2.73 µM; with SNB-75 CNS, 5.84 µM; with HS 578T breast, 6.29 µM; with SK-MEL-2 melanoma it was 2.34 µM; in the assay with DU-145 prostate, 4.72 µM. Further, the GI50 with MOLT-4 leukemia was 2.18 µM; in the assay on OVCAR-5 ovarian it was 3.78 µM; with NCI-H460 lung, 3.56 µM; with EKVX NSCLC, 3.76 µM. The TGI with MCF7 breast was greater than 100 µM; in the assay on NCI-H226 lung, 83.4 µM; in the assay with SNB-75 CNS it was greater than 100 µM; in the assay with HS 578T breast, greater than 100 µM; with SK-MEL-2 melanoma, 5.43 µM; in the assay with DU-145 prostate, greater than 100 µM. The TGI in the assay on MOLT-4 leukemia, in the assay on OVCAR-5 ovarian, in the assay with NCI-H460 lung and in the assay with EKVX NSCLC was greater than 100 µM throughout.
Turning to `O=c1[nH]c2c(ccc3cnccc32)c2c1CCC2`, the GI50 was 0.317 µM with MCF7 breast; 0.252 µM in the assay with NCI-H226 lung; 0.324 µM with SNB-75 CNS; 0.247 µM in the assay with HS 578T breast; 0.221 µM in the assay with SK-MEL-2 melanoma; 0.376 µM with DU-145 prostate. The GI50 in the assay on MOLT-4 leukemia was 0.386 µM; in the assay with OVCAR-5 ovarian, 0.461 µM; in the assay with NCI-H460 lung, 0.376 µM; in the assay with EKVX NSCLC it was 1.47 µM. In addition, the TGI with NCI-H226 lung was 0.897 µM; in the assay on SNB-75 CNS, 1.4 µM; in the assay with HS 578T breast, 0.808 µM; with SK-MEL-2 melanoma it was 0.673 µM; in the assay with DU-145 prostate it was greater than 100 µM; in the assay with MOLT-4 leukemia, greater than 100 µM. Moreover, the TGI with OVCAR-5 ovarian was greater than 100 µM; with NCI-H460 lung it was greater than 28.9 µM; with EKVX NSCLC, greater than 100 µM.
In the case of `Cc1cc(C)c(CNC(=O)c2cc(Cl)c3c(c2C)O[C@@](C)(C2CCC(N(C)C)CC2)O3)c(=O)[nH]1` (stereo partly specified), the GI50 with MCF7 breast is 49.5 µM; in the assay on NCI-H226 lung, 93 µM; in the assay on SNB-75 CNS it was 15.2 µM; in the assay with HS 578T breast it was 32.5 µM; with SK-MEL-2 melanoma, greater than 100 µM; in the assay on DU-145 prostate, greater than 100 µM. Moreover, the GI50 was 58.6 µM in the assay with MOLT-4 leukemia, greater than 100 µM with OVCAR-5 ovarian, greater than 100 µM in the assay with NCI-H460 lung and greater than 100 µM in the assay on EKVX NSCLC. Also, the TGI with MCF7 breast, in the assay with NCI-H226 lung, in the assay on SNB-75 CNS, in the assay with HS 578T breast, with SK-MEL-2 melanoma and with DU-145 prostate was greater than 100 µM throughout. Moreover, the TGI in the assay with MOLT-4 leukemia, with OVCAR-5 ovarian, in the assay with NCI-H460 lung and in the assay on EKVX NSCLC was greater than 100 µM each time.
Take `CN1CC[C@H](N(C)C(=O)N2CC(c3cc(F)ccc3F)=C[C@@]2(CO)c2ccccc2)[C@H](F)C1`: the GI50 was 0.00333 µM in the assay on MCF7 breast; 40.4 µM in the assay on NCI-H226 lung; 0.0402 µM in the assay with SNB-75 CNS; 0.0293 µM with HS 578T breast; 0.0282 µM in the assay on SK-MEL-2 melanoma; 0.033 µM in the assay on DU-145 prostate. The GI50 in the assay on MOLT-4 leukemia is 0.0377 µM; in the assay with OVCAR-5 ovarian, 0.0669 µM and 0.0212 µM; in the assay on NCI-H460 lung, 0.0308 µM. In addition, the TGI with MCF7 breast is 77.6 µM; in the assay with NCI-H226 lung, greater than 100 µM; with SNB-75 CNS, 34.9 µM; with HS 578T breast it was 7.88 µM; in the assay on SK-MEL-2 melanoma, 79.4 µM; in the assay on DU-145 prostate, 35.4 µM. For the same compound, the TGI with MOLT-4 leukemia, in the assay with OVCAR-5 ovarian, in the assay on NCI-H460 lung and in the assay on EKVX NSCLC was greater than 100 µM in each case.
As to `CCN(CC)CCN1C(=O)c2cccc3cc(N)cc(c23)C1=O`, the TGI is greater than 100 µM with MCF7 breast; 36.6 µM with NCI-H226 lung; 37.1 µM in the assay on SNB-75 CNS; greater than 100 µM in the assay with HS 578T breast; 37.6 µM with SK-MEL-2 melanoma; greater than 100 µM in the assay with DU-145 prostate. Also, the TGI was greater than 100 µM with MOLT-4 leukemia, 15.7 µM in the assay on OVCAR-5 ovarian, 18.2 µM with NCI-H460 lung and 22.8 µM with EKVX NSCLC.
Regarding `Cc1ccc(CNc2ccc(Cl)cc2NCc2ccc(C)c(O)c2)cc1O`, the GI50 in the assay on MCF7 breast was 6.18 µM; in the assay on NCI-H226 lung, 10 µM; in the assay with SNB-75 CNS it was 5.47 µM; in the assay with HS 578T breast, 7.73 µM; in the assay on SK-MEL-2 melanoma, 6.82 µM; in the assay on DU-145 prostate, 7.71 µM. For the same compound, the GI50 with MOLT-4 leukemia is 3.34 µM; in the assay on OVCAR-5 ovarian, 8.32 µM; in the assay with NCI-H460 lung, 8 µM; with EKVX NSCLC it was 8.14 µM. The TGI worked out at 14.3 µM in the assay with MCF7 breast; 22.1 µM in the assay on NCI-H226 lung; 12.1 µM in the assay with SNB-75 CNS; 24.6 µM in the assay with HS 578T breast; 14.5 µM in the assay on SK-MEL-2 melanoma; 14.4 µM in the assay on DU-145 prostate. In addition, the TGI in the assay on MOLT-4 leukemia is 14.7 µM; in the assay with OVCAR-5 ovarian it was 16.2 µM; in the assay on NCI-H460 lung, 15.9 µM; in the assay on EKVX NSCLC, 15.4 µM.
Regarding `CCN(CC)c1ccc(C=C2C(=O)NC(=S)NC2=O)cc1`, the GI50 is 3.85 µM in the assay on MCF7 breast; 3.24 µM in the assay on NCI-H226 lung; 2.66 µM in the assay on SNB-75 CNS; 5.53 µM with HS 578T breast; 2.73 µM with SK-MEL-2 melanoma; 4.18 µM in the assay on DU-145 prostate. The GI50 was 3.16 µM with MOLT-4 leukemia, 11.9 µM with OVCAR-5 ovarian, 3.99 µM with NCI-H460 lung and 14 µM in the assay on EKVX NSCLC. The TGI in the assay on MCF7 breast was 13.2 µM; in the assay on NCI-H226 lung, 10.2 µM; with SNB-75 CNS, 8.75 µM; in the assay with HS 578T breast, greater than 100 µM; in the assay on SK-MEL-2 melanoma, 7.05 µM; in the assay on DU-145 prostate it was 13 µM. Besides, the TGI stood at 10.4 µM in the assay with MOLT-4 leukemia, 26.5 µM in the assay with OVCAR-5 ovarian, 15.1 µM in the assay on NCI-H460 lung and 28.6 µM in the assay on EKVX NSCLC.
Regarding `Cc1n[nH]c(C)c1-c1c(C)n[nH]c1C`, the GI50 was 1.66 µM with MCF7 breast; 1.77 µM in the assay with NCI-H226 lung; 1.7 µM with SNB-75 CNS; 2.26 µM in the assay with HS 578T breast; 2.32 µM in the assay with SK-MEL-2 melanoma; 1.99 µM in the assay on DU-145 prostate. Moreover, the GI50 in the assay on MOLT-4 leukemia is 2.24 µM; in the assay with OVCAR-5 ovarian, 2.13 µM; in the assay with NCI-H460 lung, 1.82 µM; with EKVX NSCLC, 1.93 µM. Further, the TGI was 3.79 µM in the assay on MCF7 breast; 3.97 µM in the assay on NCI-H226 lung; 4.43 µM in the assay on SNB-75 CNS; 16.9 µM in the assay with HS 578T breast; 5.51 µM in the assay with SK-MEL-2 melanoma; 4.13 µM with DU-145 prostate. Besides, the TGI is greater than 27.3 µM with MOLT-4 leukemia, 4.85 µM in the assay with OVCAR-5 ovarian, 3.85 µM in the assay with NCI-H460 lung and 4.96 µM in the assay with EKVX NSCLC.
Turning to `CS(=O)c1cc(=O)c2ccccc2s1` (stereo unspecified), the TGI with MCF7 breast was determined as 14.4 µM; with NCI-H226 lung, 35.5 µM; in the assay on SNB-75 CNS it was 24.4 µM; with HS 578T breast, 62.7 µM; in the assay with SK-MEL-2 melanoma, 24.7 µM; with DU-145 prostate, 34.3 µM. The TGI is 6.36 µM with MOLT-4 leukemia, 18.2 µM in the assay on OVCAR-5 ovarian, 35 µM with NCI-H460 lung and 20.5 µM in the assay with EKVX NSCLC.
`COc1ccc(-c2cc(-c3ccc(Cl)cc3)c(C#N)c(=O)n2CCCCCC(=O)Nc2ccccc2N)cc1`: the GI50 in the assay with MCF7 breast was 3.25 µM; with NCI-H226 lung, 4.58 µM; with SNB-75 CNS it was 1.4 µM; with HS 578T breast it was 3.06 µM; in the assay on SK-MEL-2 melanoma, 4.68 µM; in the assay with DU-145 prostate, 10.6 µM. Further, the GI50 was 5.16 µM in the assay with MOLT-4 leukemia, 10.9 µM in the assay on OVCAR-5 ovarian, 3.42 µM in the assay with NCI-H460 lung and 3.44 µM in the assay on EKVX NSCLC. Further, the TGI with MCF7 breast was greater than 100 µM; in the assay on NCI-H226 lung, 78.9 µM; in the assay with SNB-75 CNS it was 5.83 µM; in the assay with HS 578T breast it was 29.7 µM; in the assay on SK-MEL-2 melanoma it was 33.1 µM; with DU-145 prostate, greater than 100 µM. For the same compound, the TGI was greater than 100 µM in the assay with MOLT-4 leukemia, greater than 100 µM in the assay with OVCAR-5 ovarian, 27.2 µM in the assay with NCI-H460 lung and 61.1 µM in the assay on EKVX NSCLC.
